Experimental data: patent US10294202B2, “Pyrrolidinones as herbicides” (FMC Corporation, priority 2013, dated 2019)

Columns and labels:
galium = experiment: Test A postemergence herbicide test; type: in vivo, Galium aparine; conditions: for Plant response rating, Galium: 125 g ai/ha, 0 to 100 scale; for Galium plant response rating (0 to 100 scale, 0 is no effect, 100 is complete control): 500 g ai/ha
Description: (§1) At the same time, plants selected from these crop and weed species and also blackgrass (Alopecurus myosuroides), and galium (catchweed bedstraw, Galium aparine) were planted in pots containing the same blend of loam soil and sand and treated with postemergence applications of test chemicals formulated in the same manner. Plants ranged in height from 2 to 10 cm and were in the one- to two-leaf stage for the postemergence treatment. Treated plants and untreated controls were maintained in a greenhouse for approximately 10 days, after which time all treated plants were compared to untreated controls and visually evaluated for injury. Plant response ratings, summarized in Table A, are based on a 0 to 100 scale where 0 is no effect and 100 is complete control. A dash (-) response means no test result.

blackgrass = experiment: Test A postemergence herbicide test; type: in vivo, Alopecurus myosuroides; conditions: for Plant response rating, Blackgrass: 125 g ai/ha, 0 to 100 scale; for Blackgrass plant response rating (0 to 100 scale, 0 is no effect, 100 is complete control): 500 g ai/ha
Description: as §1

ragweed = experiment: Test A pre-/postemergence herbicide test; type: in vivo, Ambrosia elatior; conditions: for Plant response rating, Ragweed: 0 to 100 scale
Description: as §1, with “Seeds of plant species selected from bamyardgrass (Echinochloa crus-galli), kochia (Kochia scoparia), ragweed (common ragweed, Ambrosia elatior), ryegrass, Italian (Italian ryegrass, Lolium multiflorum), crabgrass, large (large crabgrass Digitaria sanguinalis), giant foxtail (Setaria faberii), morningglory (Ipomoea spp.), pigweed (Amaranthus retroflexus), velvetleaf (Abutilon theophrasti), wheat (Triticum aestivum), and corn (Zea mays) were planted into a blend of loam soil and sand and treated preemergence with a directed soil spray using test chemicals formulated in a non-phytotoxic solvent mixture which included a surfactant. At” for “At”

giant foxtail = experiment: Test A pre-/postemergence herbicide test; type: in vivo, Setaria faberii
Outline: (§2)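 Seeds in loam–sand blend received preemergence directed soil spray; separately, plants 2–10 cm at one- to two-leaf stage received postemergence spray, both with test chemicals in non-phytotoxic solvent with surfactant. After ~10 days in greenhouse, injury rated visually against untreated controls, 0 (no effect) to 100 (complete control).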

ryegrass, Italian = experiment: Test A pre-/postemergence herbicide test; type: in vivo, Lolium multiflorum; conditions: for Plant response rating, Ryegrass, Italian: 0 to 100 scale
Description: as §1, with “Seeds of plant species selected from bamyardgrass (Echinochloa crus-galli), kochia (Kochia scoparia), ragweed (common ragweed, Ambrosia elatior), ryegrass, Italian (Italian ryegrass, Lolium multiflorum), crabgrass, large (large crabgrass Digitaria sanguinalis), giant foxtail (Setaria faberii), morningglory (Ipomoea spp.), pigweed (Amaranthus retroflexus), velvetleaf (Abutilon theophrasti), wheat (Triticum aestivum), and corn (Zea mays) were planted into a blend of loam soil and sand and treated preemergence with a directed soil spray using test chemicals formulated in a non-phytotoxic solvent mixture which included a surfactant. At” for “At”

kochia = experiment: Test A pre-/postemergence herbicide test; type: in vivo, Kochia scoparia; conditions: for Plant response rating, Kochia: 0 to 100 scale
Description: as §1, with “Seeds of plant species selected from bamyardgrass (Echinochloa crus-galli), kochia (Kochia scoparia), ragweed (common ragweed, Ambrosia elatior), ryegrass, Italian (Italian ryegrass, Lolium multiflorum), crabgrass, large (large crabgrass Digitaria sanguinalis), giant foxtail (Setaria faberii), morningglory (Ipomoea spp.), pigweed (Amaranthus retroflexus), velvetleaf (Abutilon theophrasti), wheat (Triticum aestivum), and corn (Zea mays) were planted into a blend of loam soil and sand and treated preemergence with a directed soil spray using test chemicals formulated in a non-phytotoxic solvent mixture which included a surfactant. At” for “At”

barnyardgrass = experiment: Test A pre-/postemergence herbicide test; type: in vivo, Echinochloa crus-galli
Outline: as §2

pigweed = experiment: Test A pre-/postemergence herbicide test; type: in vivo, Amaranthus retroflexus
Outline: as §2

corn = experiment: Test A pre-/postemergence herbicide test; type: in vivo, Zea mays; conditions: for Corn plant response rating (0 to 100 scale, 0 is no effect, 100 is complete control): 500 g ai/ha
Outline: as §2

wheat = experiment: Test A pre-/postemergence herbicide test; type: in vivo, Triticum aestivum; conditions: for Wheat plant response rating (0 to 100 scale, 0 is no effect, 100 is complete control): 500 g ai/ha
Outline: as §2

velvetleaf = experiment: Test A pre-/postemergence herbicide test; type: in vivo, Abutilon theophrasti; conditions: 1000 g ai/ha
Outline: as §2

morningglory = experiment: Test A pre-/postemergence herbicide test; type: in vivo, Ipomoea spp.
Outline: as §2

crabgrass, large = experiment: Test A pre-/postemergence herbicide test; type: in vivo, Digitaria sanguinalis; conditions: 1000 g ai/ha
Outline: as §2

[1] = 0 no effect, 100 complete control
[2] = 125 g ai/ha, visual rating, 0 no effect, 100 complete control, approximately 10 days, preemergence
[3] = Postemergence, 125 g ai/ha, 0 no effect, 100 complete control
[4] = 125 g ai/ha, visual rating, 0 to 100 scale, 0 no effect, 100 complete control, approximately 10 days, preemergence
[5] = Postemergence, 125 g ai/ha, 0 to 100 scale, 0 no effect, 100 complete control
[6] = preemergence, 500 g ai/ha, 0 to 100 scale
[7] = preemergence, 500 g ai/ha, 0 to 100 scale (0 no effect, 100 complete control)
[8] = 0 is no effect, 100 is complete control
[9] = Postemergence, 125 g ai/ha, 0 is no effect, 100 is complete control
[10] = preemergence, 500 g ai/ha, 0 is no effect and 100 is complete control
[11] = Postemergence, 125 g ai/ha, 0 to 100 scale, 0 is no effect, 100 is complete control
[12] = preemergence, 500 g ai/ha, 0 to 100 scale, 0 is no effect and 100 is complete control
[13] = Postemergence, 0 to 100 scale (0 no effect, 100 complete control)
[14] = Postemergence, 1000 g ai/ha, 0 to 100 scale (0 no effect, 100 complete control)
[15] = preemergence, 1000 g ai/ha, 0 to 100 scale
[16] = Postemergence, 125 g ai/ha, visual rating on 0 to 100 scale (0 no effect, 100 complete control), approx. 10 days

Row | Structure (SMILES) | Galium plant response rating (0 to 100 scale, 0 is no effect, 100 is complete control) (galium) | Blackgrass plant response rating (0 to 100 scale, 0 is no effect, 100 is complete control) (blackgrass) | Plant response rating, Ragweed (ragweed; [2]) | Ragweed plant response rating (0 to 100 scale, 0 is no effect, 100 is complete control) (ragweed; Postemergence, 500 g ai/ha) | Plant response rating, Foxtail, Giant (giant foxtail; [4]) | Foxtail, Giant plant response rating (0 to 100 scale, 0 is no effect, 100 is complete control) (giant foxtail; Postemergence, 500 g ai/ha) | Plant response rating, Ryegrass, Italian (ryegrass, Italian; [2]) | Ryegrass, Italian plant response rating (0 to 100 scale, 0 is no effect, 100 is complete control) (ryegrass, Italian; Postemergence, 500 g ai/ha) | Plant response rating, Kochia (kochia; [2]) | Kochia plant response rating (0 to 100 scale, 0 is no effect, 100 is complete control) (kochia; Postemergence, 500 g ai/ha) | Plant response rating, Barnyardgrass (barnyardgrass; [4]) | Barnyardgrass plant response rating (0 to 100 scale, 0 is no effect, 100 is complete control) (barnyardgrass; Postemergence, 500 g ai/ha) | Plant response rating, Pigweed (pigweed; [4]) | Pigweed plant response rating (0 to 100 scale, 0 is no effect, 100 is complete control) (pigweed; Postemergence, 500 g ai/ha) | Corn plant response rating (0 to 100 scale, 0 is no effect, 100 is complete control) (corn; Postemergence) | Wheat plant response rating (0 to 100 scale, 0 is no effect, 100 is complete control) (wheat; Postemergence) | Plant response rating, Galium (galium; [8]) | Plant response rating, Blackgrass (blackgrass; [8]) | Plant response rating, Ragweed (ragweed; [9]) | Plant response rating, Ragweed (ragweed; [10]) | also measured
1 | Cc1ccc(C2CNC(=O)C2C(=O)Nc2ccc(F)cc2F)cc1F (racemic) [Compound 145] | 50 | 30 | 0 | 20 | 70 | 70 | 0 | 0 | 0 | 20 | 80 | 90 | 0 | 0 | 0 | 0 | – | – | – | – | Plant response rating, Galium (galium; [1]): 20; Plant response rating, Blackgrass (blackgrass; [1]): 0; Plant response rating, Ragweed (ragweed; [3]): 0; Plant response rating, Ragweed (ragweed; preemergence, 500 g ai/ha): 0; Plant response rating, Foxtail, Giant (giant foxtail; [5]): 40; Plant response rating, Foxtail, Giant (giant foxtail; [6]): 90; Plant response rating, Ryegrass, Italian (ryegrass, Italian; [3]): 0; Plant response rating, Ryegrass, Italian (ryegrass, Italian; preemergence, 500 g ai/ha): 0; Plant response rating, Kochia (kochia; [3]): 0; Plant response rating, Kochia (kochia; preemergence, 500 g ai/ha): 0; Plant response rating, Barnyardgrass (barnyardgrass; [5]): 70; Plant response rating, Barnyardgrass (barnyardgrass; [7]): 90; Plant response rating, Pigweed (pigweed; [5]): 0; Plant response rating, Pigweed (pigweed; [6]): 0; Plant response rating, Corn (corn; [5]): 0; Plant response rating, Wheat (wheat; [5]): 0
2 | O=C1NCC(c2cc(F)cc(F)c2)C1C(=O)Nc1ccc(F)cc1F (racemic) [Compound 156] | 30 | 20 | 0 | 30 | 90 | 80 | 0 | 30 | 20 | 20 | 90 | 80 | 0 | 20 | 30 | 40 | 20 | 0 | 0 | 0 | Plant response rating, Foxtail, Giant (giant foxtail; [11]): 80; Plant response rating, Foxtail, Giant (giant foxtail; [6]): 90; Plant response rating, Ryegrass, Italian (ryegrass, Italian; [9]): 20; Plant response rating, Ryegrass, Italian (ryegrass, Italian; [10]): 30; Plant response rating, Kochia (kochia; [9]): 0; Plant response rating, Kochia (kochia; [10]): 40; Plant response rating, Barnyardgrass (barnyardgrass; [11]): 80; Plant response rating, Barnyardgrass (barnyardgrass; [7]): 90; Plant response rating, Pigweed (pigweed; [11]): 0; Plant response rating, Pigweed (pigweed; [12]): 0; Plant response rating, Corn (corn; [11]): 20; Plant response rating, Wheat (wheat; [11]): 0
3 | Cc1cccc(NC(=O)C2C(=O)NCC2c2cccc(C(F)(F)F)c2)c1F (racemic) [Compound 184] | 20 | 20 | 0 | 0 | 90 | 80 | 0 | 20 | 0 | 0 | 70 | 80 | 0 | 0 | 20 | 40 | 0 | 0 | 0 | 0 | Plant response rating, Foxtail, Giant (giant foxtail; [11]): 70; Plant response rating, Foxtail, Giant (giant foxtail; [12]): 90; Plant response rating, Ryegrass, Italian (ryegrass, Italian; [9]): 0; Plant response rating, Ryegrass, Italian (ryegrass, Italian; [10]): 0; Plant response rating, Kochia (kochia; [9]): 0; Plant response rating, Kochia (kochia; [10]): 20; Plant response rating, Barnyardgrass (barnyardgrass; [11]): 70; Plant response rating, Barnyardgrass (barnyardgrass; [12]): 90; Plant response rating, Pigweed (pigweed; [11]): 0; Plant response rating, Pigweed (pigweed; [12]): 0; Plant response rating, Corn (corn; [11]): 0; Plant response rating, Wheat (wheat; [11]): 0
4 | Cc1ccc(NC(=O)C2C(=O)NCC2c2cccc(C(F)(F)F)c2)cc1C(F)(F)F (racemic) [Compound 186] | 0 | 0 | 0 | 0 | 0 | 0 | 0 | 0 | 0 | 0 | 0 | 0 | 0 | 0 | 0 | 0 | 0 | 0 | 0 | 0 | Plant response rating, Foxtail, Giant (giant foxtail; [11]): 0; Plant response rating, Foxtail, Giant (giant foxtail; [12]): 0; Plant response rating, Ryegrass, Italian (ryegrass, Italian; [9]): 0; Plant response rating, Ryegrass, Italian (ryegrass, Italian; [10]): 0; Plant response rating, Kochia (kochia; [9]): 0; Plant response rating, Kochia (kochia; [10]): 0; Plant response rating, Barnyardgrass (barnyardgrass; [11]): 0; Plant response rating, Barnyardgrass (barnyardgrass; [12]): 0; Plant response rating, Pigweed (pigweed; [11]): 0; Plant response rating, Pigweed (pigweed; [12]): 0; Plant response rating, Corn (corn; [11]): 0; Plant response rating, Wheat (wheat; [11]): 0
5 | C=CCN(C(=O)C1C(=O)NCC1c1ccc(F)c(F)c1)c1ccccc1[N+](=O)[O-] (stereo not drawn) [Compound 266] | – | – | – | – | – | – | – | – | – | – | – | – | – | – | – | – | – | – | – | – | Plant response rating, Velvetleaf (velvetleaf; [13]): 0; Plant response rating, Velvetleaf (velvetleaf; preemergence, 0 to 100 scale): 0; Plant response rating, Foxtail, Giant (giant foxtail; [14]): 0; Plant response rating, Foxtail, Giant (giant foxtail; [15]): 0; Plant response rating, Morningglory (morningglory; [16]): 20; Plant response rating, Morningglory (morningglory; [14]): 0; Plant response rating, Morningglory (morningglory; [15]): 0; Plant response rating, Barnyardgrass (barnyardgrass; [14]): 0; Plant response rating, Barnyardgrass (barnyardgrass; preemergence, 1000 g ai/ha, 0 to 100 scale (0 no effect, 100 complete control)): 0; Plant response rating, Pigweed (pigweed; [16]): 40; Plant response rating, Pigweed (pigweed; [14]): 0; Plant response rating, Pigweed (pigweed; [15]): 0; Plant response rating, Corn (corn; [14]): 0; Plant response rating, Corn (corn; [15]): 0; Plant response rating, Wheat (wheat; [16]): 40; Plant response rating, Wheat (wheat; [14]): 0; Plant response rating, Wheat (wheat; [15]): 0; Plant response rating, Crabgrass, Large (crabgrass, large; [13]): 0; Plant response rating, Crabgrass, Large (crabgrass, large; preemergence, 0 to 100 scale): 0
